In patent EP3553052A1, “5-OXO-4,5-DIHYDRO-1H-1,2,4-TRIAZOL DERIVATIVES FOR THE TREATMENT OF CANCER” (Bayer AG, priority 2018, dated 2019) one finds IC50 data, which are given here for 1 compound.

One may read the IC50 as the midpoint of a concentration-inhibition curve.

The target in assay [1] is T1, human DHODH (Homo sapiens, UniProt Q02127).
T1 construct: purchased Novus NBP1-98916
In words: DHODH enzymatic assay - 1 (DCIP bleaching). It counts as biochemical. To be noted: 2 nM DHODH, 1 mM dihydroorotate, 0.1 mM decylubiquinone, 0.06 mM DCIP, pH 8.0, 32 degree celsius; read-out: Target IC50. The method, then:
The assay was conducted in buffer containing 50 mM Tris, 0.1% Triton X-100, 150 mM potassium chloride, 2 nM DHODH, 1 mM dihydroorotate, 0.1 mM decylubiquinone, 0.06 mM DCIP, and 2% DMSO at pH 8.0 at 32 degree celsius. The reaction was initiated by addition of substrates. Enzyme activity was monitored kinetically by the reduction in DCIP absorbance at 600 nm. Purified recombinant human DHODH enzyme was purchased from Novus (cat. no. NBP1-98916). Other chemicals were purchased from Sigma-Aldrich. Absorbance measurements were obtained using a BMG clarion star plate-reading spectrophotometer. Table 1: DHODH enzymatic assay : IC50 values of examples in in vitro assay 1

The subject of assay [2] is THP-1 cells. The experiment in a line: THP-1 proliferation assay - 1 (AML). In kind it is cell-based. To be noted: Homo sapiens, 72h incubation, CellTiter-Glo cell viability, read-out: Target IC50. The method, then: In vitro Assay 2: THP-1 proliferation assay - 1 (AML) 2000 cells/well of THP-1 cells were seeded in RPMI 1640 with Glutamax (Gibco, #11875-093) and 10% fetal calf serum (Biochrom, #S0615) in 384-well plates. The next day, cells were incubated with different concentrations of test compounds for 72h. Cellular viability was analyzed using CellTiter-Glo® Luminescent Cell Viability Assay (Promega, #G7570) according to manufacturer's instructions.
A general note: ATP-based viability assays read luminescence as a measure of living cells.

T1 sequence (Q02127 whole entry): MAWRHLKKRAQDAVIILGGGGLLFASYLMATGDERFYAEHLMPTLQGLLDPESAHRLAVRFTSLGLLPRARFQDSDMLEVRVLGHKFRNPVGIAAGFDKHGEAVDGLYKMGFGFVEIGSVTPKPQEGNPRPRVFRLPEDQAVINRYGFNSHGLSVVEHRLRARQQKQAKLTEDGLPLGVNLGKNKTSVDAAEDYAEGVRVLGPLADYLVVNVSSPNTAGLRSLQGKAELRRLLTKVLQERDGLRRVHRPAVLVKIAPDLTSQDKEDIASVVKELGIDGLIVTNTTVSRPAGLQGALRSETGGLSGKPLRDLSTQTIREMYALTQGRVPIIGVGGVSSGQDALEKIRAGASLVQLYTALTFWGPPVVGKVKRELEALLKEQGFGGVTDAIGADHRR

`CCCCOc1cc(-n2nc(-c3ccccc3Cl)[nH]c2=O)c(F)cc1C(=O)Nc1c(F)cccc1Cl` [Compound I, 2-butoxy-N-(2-chloro-6-fluorophenyl)-4-[3-(2-chlorophenyl)-5-oxo-4,5-dihydro-1H-1,2,4-triazol-1-yl]-5-fluorobenzamide]: the figures for the IC50 in assay [1] and in assay [2] were 3000 nM and 305 nM, respectively.
